Assays:
[1] = tested on: factor IIa (thrombin); experiment: inhibitory activity towards factor IIa (thrombin) in the presence of AT-III; assay type: biochemical; details: Experiment 1
Procedure: (§1) (b) inhibitory activity towards the activated factor II (factor IIa) or thrombin.
(§2) The results are expressed in μg of product per ml.
(§3) In this model system, the inhibition of factor IIa is determined by measuring the IC 50 of the test substances in the presence of AT-III and HC II.

[2] = tested on: blood coagulation; experiment: coagulation time by the APTT method; assay type: biochemical; details: Experiment 1
Procedure: (c) measurement of the coagulation time by the APTT method (as described in Caen, J., Larrieu, M. J., and Samama, in Hemostase, paris, Expansion Scientifique Francaise, 1968, pp 133-135).
In the present instance, the concentration of the product to be tested necessary for a doubling of the coagulation time is determined.
The result is expressed in μg of substance tested per ml.

[3] = tested on: plasma; experiment: additional experiments in plasma on cofactor dependence
[4] = tested on: thrombus formation; experiment: anti-thrombotic activity in vivo in the rabbit, Wessler model (human thromboplastin as thrombogenic agent); details: dose of 100 μg/kg
Procedure: (d) anti-thrombotic activity in vivo in the rabbit, according to the model of Wessler (such as that described by Wessler, S., Reimer, S. M. and Sheps, M. C., in J. Appl. Physiol. 14 (6), 943-946, 1959).
The test substance is injected into the carotid artery, at doses varying from 10 to 500 μg/kg, 3 mn before the administration of the thrombogenic agent (human thromboplastin).
The result is expressed as percentage of inhibition of thrombus formation.

[5] = tested on: factor IIa (thrombin); experiment: inhibitory activity towards factor IIa (thrombin) in the presence of HC II; assay type: biochemical; details: Experiment 1
Procedure: as §1, §2, §3

Dermatan sulfate
Anti-IIa activity, AT-III, IC 50 [1]: 100 µg/mL | activity in the APTT model (in words) [2]: sursulfation increases the activity | Concentration necessary to double the coagulation time ([2]; APTT method): 50 µg/mL | cofactor dependence of the action in plasma [3]: totally dependent on HC 11 | prevention of thrombus formation [4]: ~40% | Anti-IIa activity, HC II, IC 50 [5]: 5.8 µg/mL
